Experimental data taken from ChEMBL document CHEMBL1649114, “Effect of concomitant artesunate administration and cytochrome P4502C8 polymorphisms on the pharmacokinetics of amodiaquine in Ghanaian children with uncomplicated malaria” (Antimicrob Agents Chemother, 2008).

How the values were obtained:
Parameters in all cases: dose 10 mg/kg, route oral
[1] = test system: Plasma; assay: Plasma concentration in children with uncomplicated malaria assessed as desethylamodiaquine at 10 mg/kg, po administered as single dose measured on day 3; assay type: ADME, organism-based; conditions: human, in vivo
[2] = test system: Homo sapiens; assay: Toxicity in children with uncomplicated malaria assessed as neutropenia at 10 mg/kg, po administered as single dose; assay type: organism-based; conditions: in vivo
[3] = test system: Homo sapiens; assay: Toxicity in children with uncomplicated malaria assessed as bradycardia at 10 mg/kg, po administered as single dose; assay type: organism-based; conditions: in vivo
[4] = test system: Homo sapiens; assay: Toxicity in children with uncomplicated malaria assessed as excessive sleepiness at 10 mg/kg, po administered as single dose; assay type: organism-based; conditions: in vivo
[5] = test system: Homo sapiens; assay: Toxicity in children with uncomplicated malaria assessed as pruritus at 10 mg/kg, po administered as single dose; assay type: organism-based; conditions: in vivo
[6] = test system: Homo sapiens; assay: Toxicity in children with uncomplicated malaria assessed as elevated serum aminotransferase levels at 10 mg/kg, po administered as single dose; assay type: organism-based; conditions: in vivo
[7] = test system: Homo sapiens; assay: Tmax in children with uncomplicated malaria assessed as desethylamodiaquine at 10 mg/kg, po administered as single dose; assay type: ADME, organism-based; conditions: in vivo
[8] = test system: Homo sapiens; assay: Cmax in children with uncomplicated malaria assessed as desethylamodiaquine at 10 mg/kg, po administered as single dose; assay type: ADME, organism-based; conditions: in vivo
[9] = test system: Homo sapiens; assay: AUC in children with uncomplicated malaria assessed as desethylamodiaquine at 10 mg/kg, po administered as single dose; assay type: ADME, organism-based, Plasma; conditions: in vivo

Row | Activity [1] [ng/mL] | Tmax [7] [h] | Cmax [8] [ng/mL] | AUC [9] [ng·h/mL] | SMILES | Activity [2] | Activity [3] | Activity [4] | Activity [5] | Activity [6]
1 | 156.6 |  |  |  | CCNCc1cc(Nc2ccnc3cc(Cl)ccc23)ccc1O [DESETHYL AMODIAQUINE] | Toxic | Toxic | Toxic | Toxic | Toxic
2 |  | 47.9 | 1185 | 38516 | CCN(CC)Cc1cc(Nc2ccnc3cc(Cl)ccc23)ccc1O.Cl |  |  |  |  | 
